Results from article PMC5890513 (Antiviral Chemistry & Chemotherapy, 2017).

Tests used:
SFTSV = assay: microbe, parasite or virus in culture; assay type: cell-based, severe fever with thrombocytopenia syndrome virus; conditions: for EC50: Severe fever with thrombocytopenia syndrome virus, Vero, 72 h, read-out: EC50 (50% effective concentration), anti-SFTSV activity
in vitro = conditions: monkey

SMILES | anti-SFTSV activity (intracellular SFTSV RNA level), in words (SFTSV) | EC50 (SFTSV) | viability of mock-infected Vero cells (Vero cells) | CC50 (in vitro)
NC(=O)c1ncn([C@@H]2O[C@H](CO)[C@@H](O)[C@H]2O)n1 [Ribavirin] | reduced the intracellular SFTSV RNA level in a dose-dependent manner | 40.1 ± 16.3 µM | did not reduce the viability | > 100 µM
CCN(CC)Cc1cc(Nc2ccnc3cc(F)ccc23)ccc1O [Compound 2, 4-(7-Fluoroquinolin-4-ylamino)-2-diethylaminomethylphenol] | – | 36.6 ± 9.3 µM | – | > 100 µM
NC(=O)c1nc(F)c[nH]c1=O [Favipiravir] | reduced the intracellular SFTSV RNA level in a dose-dependent manner | 25 ± 9.3 µM | did not reduce the viability | > 100 µM
CCN(CC)Cc1cc(Nc2ccnc3cc(Cl)ccc23)ccc1O [Compound 1, 4-(7-Chloroquinolin-4-ylamino)-2-diethylaminomethylphenol] | selective inhibitor of SFTSV replication | 19.1 ± 5.1 µM | – | > 100 µM
CCN(CC)Cc1cc(Nc2ccnc3cc(I)ccc23)ccc1O [Compound 4, 4-(7-Iodoquinolin-4-ylamino)-2-diethylaminomethylphenol] | – | 15.6 ± 4.9 µM | – | > 100 µM
CCN(CC)Cc1cc(Nc2ccnc3cc(Br)ccc23)ccc1O [Compound 3, 4-(7-Bromoquinolin-4-ylamino)-2-diethylaminomethylphenol] | – | 31.1 ± 16.8 µM | – | > 100 µM
